Assays:
[1] = tested on: embryonic zebrafish (Danio rerio); test: Embryonic zebrafish developmental toxicity bioassay; settings: for developmental toxicity to embryonic zebrafish: single compound standards, nominal 0.01 – 60 µM, exposure 6–120 hpf; for relative order of mean EC50: single standards, 120 hpf
Pasteurella spp. = settings: cited from earlier work
[2] = cited from earlier work
Mycobacterium sp. PYR-1 = settings: cited from earlier work
[3] = tested on: Mycobacterium sp. strain ELW1; test: PHE transformation by ELW1, resting cell tests
[4] = tested on: Mycobacterium sp. strains PYRGCK, JS19b1, czh-3, czh-117; settings: cited from earlier work
[5] = 96-well plates ref 64; cited from earlier work
Mycobacterium sp. A1-PYR = settings: cited from earlier work
alkene monooxygenase = test: Inhibition of PHE transformation in ELW1 by 1-octyne; assay type: cell-based, Mycobacterium sp. strain ELW1; settings: ~7 µmol 1-octyne in the aqueous media

With Oc1cc2ccccc2c2ccccc12 [9-OHPHE, 9-hydroxyphenanthrene] the “developmental toxicity to embryonic zebrafish” value (from here on “developmental toxicity”) [1] was “toxic”.
In the case of Oc1ccc2ccc3ccccc3c2c1 [3-OHPHE, 3-hydroxyphenanthrene], the “developmental toxicity” value [1] is reported as “toxic”.
For Oc1cc2c(O)cccc2c2ccccc12 [1,9-OHPHE, 1,9-dihydroxyphenanthrene], the “developmental toxicity” value [1] was “toxic” and the “relative order of mean EC50” value [1] was “most toxic”.
With O[C@@H]1c2ccccc2-c2ccccc2[C@H]1O (relative stereo) [trans-9,10-OHPHE, trans-9,10-dihydroxy-9,10-dihydrophenanthrene] the “developmental toxicity” value [1] was “not toxic”.
For c1ccc2c(c1)ccc1ccccc12 [PHE, phenanthrene], the “non-normalized first-order rate of PHE transformation” value (Pasteurella spp.) is listed as -0.0005 h⁻¹, the water solubility [2] is listed as ~ 7 µM and the “non-normalized first-order rate of PHE transformation” value (Mycobacterium sp. PYR-1) is listed as -0.0015 h⁻¹. For the same compound, the “first-order PHE transformation rate, kPHE” value ([3]; 1-octyne controls) was 0.015 to 0.10 h⁻¹, the “half-life, t1/2” value ([3]; 1-octyne controls) was 7.0 to 47 h and the “half-life, t1/2” value ([3]; PHE-exposed cells) was 1.4 to 4.3 h. The zero-order transformation rate [4] was −0.0020 to −0.019 µmol hr^−1, the “sorptive losses in test system” value [5] was “less than 10%” and the zero-order transformation rate (Mycobacterium sp. A1-PYR) was -0.019 µmol/h.
With Oc1cccc2c1ccc1ccccc12 [1-OHPHE, 1-hydroxyphenanthrene] the “developmental toxicity” value [1] was “toxic” and the “relative order of mean EC50” value [1] was “least toxic”.
In the case of C#CCCCCCC [1-Octyne, 1-octyne], the “inhibition of PHE degradation” value (alkene monooxygenase) is reported as “effectively, but not completely, inhibited”.
With Oc1cccc2ccc3ccccc3c12 [4-OHPHE, 4-hydroxyphenanthrene] the “developmental toxicity” value [1] was “toxic”.

From article PMC5996983 (Environmental science & technology, 2017)
